Laboratory results: patent US10787436B2, “Inhibitors of cyclin-dependent kinase 7 (CDK7)” (Dana-Farber Cancer Institute, Inc., priority 2012, dated 2020)

Tests used:
CDK7 = CDK7 (Homo sapiens (Human), UniProt P50613); assay: In vitro inhibitory activity against CDK7 (Table 1); format: biochemical
Experimental: In vitro kinase assays with immunoprecipitated proteins (or recombinant CAK complexes) were performed as follows. Kinase reactions were performed in 25 μL of final volume of reaction buffer (50 mM Hepes, pH 7.5, 150 mM NaCl, 10 mM MgCl2, 5% glycerol, 25 μM ATP, and 10 μCi of [γ-32P]ATP). Each reaction contained 1 μg of RNAP II. Incubation was at 30° C. for 30-45 min. Reactions were terminated by addition of 5 μL of 5×SDS-PAGE sample buffer and incubated at 95° C. for 5 min. Reactions were analyzed by SDS-PAGE, and the dried gel was exposed to film or PhosphorImager plate.

Jurkat = Jurkat (proliferation, CellTiter-Glo); format: cell-based; conditions: Homo sapiens, Jurkat; read-out: Calculated IC50, Jurkat
MV4-11 = assay: Proliferation assay, CellTiter-Glo, 72 hour; format: cell-based; conditions: Homo sapiens, MV4-11, blood cancer cell line, read-out: Inhibition of proliferation, MV4-11
SK-ES = assay: Proliferation assay, CellTiter-Glo, 72 hour; format: cell-based; conditions: Ewing's sarcoma cell line, read-out: Inhibition of proliferation, SK-ES
SKBR3 = assay: Proliferation assay, CellTiter-Glo, 72 hour; format: cell-based; conditions: Homo sapiens, SK-BR-3, breast cancer cell line, read-out: Inhibition of proliferation, SKBR3
MCF10A = assay: Proliferation assay, CellTiter-Glo, 72 hour; format: cell-based; conditions: Homo sapiens, MCF-10A, non-tumorigenic breast epithelial cell line, read-out: Inhibition of proliferation, MCF10A
MCF7 = assay: Proliferation assay, CellTiter-Glo, 72 hour; format: cell-based; conditions: Homo sapiens, MCF7, breast cancer cell line, read-out: Inhibition of proliferation, MCF7
hTERT-HME1 = assay: Proliferation assay, CellTiter-Glo, 72 hour; format: cell-based; conditions: hTERT-HME1, immortalized normal mammary epithelial cell line, read-out: Inhibition of proliferation, hTERT-HME1
MNNG-HOS Cl#5 = assay: Proliferation assay, CellTiter-Glo, 72 hour; format: cell-based; conditions: osteosarcoma cell line, read-out: Inhibition of proliferation, MNNG-HOS Cl#5
MDA-MB231 = assay: Proliferation assay, CellTiter-Glo, 72 hour; format: cell-based; conditions: Homo sapiens, MDA-MB-231, breast cancer cell line, read-out: Inhibition of proliferation, MDA-MB231
RD-ES = assay: Proliferation assay, CellTiter-Glo, 72 hour; format: cell-based; conditions: RD-ES, Ewing's sarcoma cell line, read-out: Inhibition of proliferation, RD-ES
Hs863T = assay: Proliferation assay, CellTiter-Glo, 72 hour; format: cell-based; conditions: Ewing's sarcoma cell line, read-out: Inhibition of proliferation, Hs863T
143B = assay: Proliferation assay, CellTiter-Glo, 72 hour; format: cell-based; conditions: Homo sapiens, 143B, osteosarcoma cell line, read-out: Inhibition of proliferation, 143B
SAOS = assay: Proliferation assay, CellTiter-Glo, 72 hour; format: cell-based; conditions: osteosarcoma cell line, read-out: Inhibition of proliferation, SAOS
HL60 = assay: Proliferation assay, CellTiter-Glo, 72 hour; format: cell-based; conditions: Homo sapiens, HL-60, blood cancer cell line, read-out: Inhibition of proliferation, HL60
RS4-11 = assay: Proliferation assay, CellTiter-Glo, 72 hour; format: cell-based; conditions: Homo sapiens, RS4-11, blood cancer cell line, read-out: Inhibition of proliferation, RS4-11
Hs822T = assay: Proliferation assay, CellTiter-Glo, 72 hour; format: cell-based; conditions: Ewing's sarcoma cell line, read-out: Inhibition of proliferation, Hs822T
T47D = assay: Proliferation assay, CellTiter-Glo, 72 hour; format: cell-based; conditions: Homo sapiens, T47D, breast cancer cell line, read-out: Inhibition of proliferation, T47D
A673 = assay: Proliferation assay, CellTiter-Glo, 72 hour; format: cell-based; conditions: Homo sapiens, A673, Ewing's sarcoma cell line, read-out: Inhibition of proliferation, A673
THP-1 = assay: Proliferation assay, CellTiter-Glo, 72 hour; format: cell-based; conditions: Homo sapiens, THP-1, blood cancer cell line, read-out: Inhibition of proliferation, THP-1
MLK3 = MLK3 (Homo sapiens (Human), UniProt Q16584); assay: Life Technologies LanthaScreen Eu kinase assay, MLK3; format: binding; conditions: superscript b (footnote not given; tested at 100 nM and 1 μM)
Sequence of MLK3 (Q16584 whole entry): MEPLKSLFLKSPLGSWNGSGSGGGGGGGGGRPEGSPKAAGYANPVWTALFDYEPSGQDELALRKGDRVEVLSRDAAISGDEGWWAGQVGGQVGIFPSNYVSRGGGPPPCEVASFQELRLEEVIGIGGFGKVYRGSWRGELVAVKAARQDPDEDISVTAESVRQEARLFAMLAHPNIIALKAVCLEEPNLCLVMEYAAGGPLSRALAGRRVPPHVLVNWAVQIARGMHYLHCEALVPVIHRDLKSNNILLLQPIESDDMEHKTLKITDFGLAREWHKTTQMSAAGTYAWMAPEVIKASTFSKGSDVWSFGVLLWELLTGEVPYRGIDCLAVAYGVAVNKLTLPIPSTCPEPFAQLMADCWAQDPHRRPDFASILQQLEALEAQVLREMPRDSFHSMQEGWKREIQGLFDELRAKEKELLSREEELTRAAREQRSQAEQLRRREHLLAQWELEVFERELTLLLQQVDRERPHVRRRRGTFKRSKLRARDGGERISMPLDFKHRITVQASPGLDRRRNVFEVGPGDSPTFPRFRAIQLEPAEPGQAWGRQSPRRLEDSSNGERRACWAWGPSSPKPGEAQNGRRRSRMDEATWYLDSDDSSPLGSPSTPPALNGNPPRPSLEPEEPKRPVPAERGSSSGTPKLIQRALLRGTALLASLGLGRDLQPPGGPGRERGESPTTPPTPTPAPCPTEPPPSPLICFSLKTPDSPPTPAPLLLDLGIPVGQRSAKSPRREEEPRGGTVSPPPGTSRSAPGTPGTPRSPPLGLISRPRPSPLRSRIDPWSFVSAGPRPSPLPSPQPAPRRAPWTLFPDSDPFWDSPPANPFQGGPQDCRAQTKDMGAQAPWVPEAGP

IRAK1 = IRAK1 (Homo sapiens (Human), UniProt P51617); assay: Life Technologies Adapta kinase assay, IRAK1; format: biochemical; conditions: superscript b (footnote not given; tested at 100 nM and 1 μM)
Sequence of IRAK1 (P51617 whole entry): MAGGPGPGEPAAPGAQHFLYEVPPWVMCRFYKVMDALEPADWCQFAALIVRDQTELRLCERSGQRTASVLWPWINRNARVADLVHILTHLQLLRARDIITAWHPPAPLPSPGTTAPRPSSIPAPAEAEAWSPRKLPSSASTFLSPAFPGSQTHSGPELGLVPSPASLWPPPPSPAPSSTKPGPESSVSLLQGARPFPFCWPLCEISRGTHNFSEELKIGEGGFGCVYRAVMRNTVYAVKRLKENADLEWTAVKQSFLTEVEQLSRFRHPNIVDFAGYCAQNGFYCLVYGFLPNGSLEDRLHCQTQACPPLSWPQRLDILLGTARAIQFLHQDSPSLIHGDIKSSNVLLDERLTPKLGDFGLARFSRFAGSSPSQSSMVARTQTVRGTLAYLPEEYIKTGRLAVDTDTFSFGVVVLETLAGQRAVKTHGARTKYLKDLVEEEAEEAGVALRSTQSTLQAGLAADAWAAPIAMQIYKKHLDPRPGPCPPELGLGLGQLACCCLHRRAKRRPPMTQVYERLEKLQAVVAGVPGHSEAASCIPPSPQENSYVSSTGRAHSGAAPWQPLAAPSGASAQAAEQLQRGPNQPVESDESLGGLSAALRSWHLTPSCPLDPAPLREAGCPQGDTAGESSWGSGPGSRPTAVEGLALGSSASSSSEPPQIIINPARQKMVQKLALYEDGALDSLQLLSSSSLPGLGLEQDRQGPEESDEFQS

Sequence of CDK7 (P50613 whole entry, looked up): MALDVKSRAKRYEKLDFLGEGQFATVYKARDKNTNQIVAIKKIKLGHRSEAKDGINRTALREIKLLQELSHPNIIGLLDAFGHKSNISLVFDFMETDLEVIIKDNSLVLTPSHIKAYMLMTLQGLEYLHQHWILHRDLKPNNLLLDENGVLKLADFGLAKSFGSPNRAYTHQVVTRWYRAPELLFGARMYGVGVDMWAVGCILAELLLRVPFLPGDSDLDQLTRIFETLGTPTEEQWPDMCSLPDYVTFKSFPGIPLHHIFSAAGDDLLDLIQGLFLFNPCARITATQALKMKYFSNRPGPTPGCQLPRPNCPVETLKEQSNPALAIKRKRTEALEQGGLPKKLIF
Sequence of CDK7 (P51946 whole entry partner, looked up): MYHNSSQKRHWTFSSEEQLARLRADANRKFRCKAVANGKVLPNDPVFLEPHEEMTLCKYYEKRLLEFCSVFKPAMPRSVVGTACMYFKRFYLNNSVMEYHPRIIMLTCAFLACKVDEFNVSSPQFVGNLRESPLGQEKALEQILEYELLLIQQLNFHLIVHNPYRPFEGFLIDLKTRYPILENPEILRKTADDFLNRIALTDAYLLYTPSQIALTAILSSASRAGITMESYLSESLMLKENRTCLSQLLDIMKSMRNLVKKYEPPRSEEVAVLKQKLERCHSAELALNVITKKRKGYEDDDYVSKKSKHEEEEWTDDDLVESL
Sequence of CDK7 (P51948 whole entry partner, looked up): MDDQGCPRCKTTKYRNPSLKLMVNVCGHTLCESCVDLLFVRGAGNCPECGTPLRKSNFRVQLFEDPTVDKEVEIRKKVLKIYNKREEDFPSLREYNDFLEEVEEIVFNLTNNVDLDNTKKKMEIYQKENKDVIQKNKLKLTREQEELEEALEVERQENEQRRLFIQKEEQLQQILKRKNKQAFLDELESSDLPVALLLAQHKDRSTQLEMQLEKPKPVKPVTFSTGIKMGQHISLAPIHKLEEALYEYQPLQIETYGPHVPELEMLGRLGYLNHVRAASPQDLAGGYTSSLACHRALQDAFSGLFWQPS

SMILES: Cc1nc(Nc2cccc(NC(=O)c3ccc(NC(=O)/C=C/CN(C)C)cc3)c2)nc(-c2c[nH]c3ccccc23)c1C [Formula I-39]
- IC50 (CDK7): 1.35 µM

SMILES: CN(C)C/C=C/C(=O)Nc1ccc(C(=O)Nc2cccc(Nc3ncc(Cl)c(-c4cccc5[nH]ccc45)n3)c2)cc1 [Formula I-31]
- IC50 (CDK7): 0.416 µM

SMILES: CN(C)C/C=C/C(=O)Nc1ccc(C(=O)Nc2cccc(Nc3ncc(Cl)c(-c4cccc5[nH]ccc45)n3)c2)cc1 [Formula I-30]
- IC50 (CDK7): 0.347 µM

SMILES: CN(C)C/C=C/C(=O)Nc1cccc(C(=O)Nc2cccc(Nc3ncc(Cl)c(-c4c[nH]c5ccccc45)n3)c2)c1 [Formula I-18]
- IC50 (CDK7): 0.0139 µM

SMILES: CN(C)C/C=C/C(=O)Nc1ccc(C(=O)Nc2ccc(Cl)c(Nc3ncc(Cl)c(-c4c[nH]c5ccccc45)n3)c2)cc1 [Formula I-25]
- IC50 (CDK7): 0.0878 µM

SMILES: CN(C)C/C=C/C(=O)Nc1ccc(S(=O)(=O)Nc2cccc(Nc3ncc(Cl)c(-c4c[nH]c5ccccc45)n3)c2)cc1 [Formula I-52, (E)-N-(4-(N-(3-(5-chloro-4-(1H-indol-3-yl)pyrimidin-2-ylamino)phenyl)sulfamoyl)phenyl)-4-(dimethylamino)but-2-enamide]
- IC50 (Jurkat): 0.1 to 1 µM

SMILES: CN(C)C/C=C/C(=O)Nc1ccc(C(=O)Nc2cccc(Nc3ncc(Cl)c(-n4cnc5ccccc54)n3)c2)cc1 [Formula I-27]
- IC50 (CDK7): 0.201 µM

SMILES: CN(C)C/C=C/C(=O)Nc1ccc(C(=O)Nc2cccc(Nc3ncc(C(F)(F)F)c(-c4c[nH]c5ccccc45)n3)c2)cc1 [Formula I-42]
- IC50 (CDK7): 0.0357 µM

SMILES: CN(C)C/C=C/C(=O)Nc1ccc(C(=O)Nc2cccc(Nc3ncc(Cl)c(-c4cc5ccccc5[nH]4)n3)c2)cc1 [Formula I-34]
- IC50 (CDK7): 4.75 µM

SMILES: CN(C)C/C=C/C(=O)Nc1ccc(S(=O)(=O)Nc2cccc(Nc3ncc(C#N)c(-c4c[nH]c5ccccc45)n3)c2)cc1 [Formula I-55, (E)-N-(4-(N-(3-(5-cyano-4-(1H-indol-3-yl)pyrimidin-2-ylamino)phenyl)sulfamoyl)phenyl)-4-(dimethylamino)but-2-enamide]
- IC50 (Jurkat): 0.1 to 1 µM

SMILES: CN(C)C/C=C/C(=O)Nc1ccc(C(=O)Nc2cccc(Nc3ncc(Cl)c(-c4cnc5[nH]ccc5c4)n3)c2)cc1 [Formula I-29]
- IC50 (CDK7): 0.288 µM

SMILES: Cc1nc(C)c(-c2nc(Nc3cccc(NC(=O)c4ccc(NC(=O)/C=C/CN(C)C)cc4)c3)ncc2Cl)s1 [Formula I-50]
- IC50 (CDK7): 0.0923 µM

SMILES: CN(C)C/C=C/C(=O)Nc1ccc(C(=O)Nc2cccc(Nc3ncc(Cl)c(-c4ccc5cc[nH]c5c4)n3)c2)cc1 [Formula I-32]
- IC50 (CDK7): 1.18 µM

SMILES: CN(C)C/C=C/C(=O)Nc1ccc(C(=O)Nc2cccc(Nc3nc(-c4c[nH]c5ccccc45)c4ccccc4n3)c2)cc1 [Formula I-33]
- IC50 (CDK7): 1.42 µM

SMILES: Cc1cnc(Nc2cccc(NC(=O)c3ccc(NC(=O)/C=C/CN(C)C)cc3)c2)nc1-c1c[nH]c2ccccc12 [Formula I-19]
- IC50 (CDK7): 0.0157 µM

SMILES: CN(C)C/C=C/C(=O)Nc1ccc(C(=O)Nc2cccc(Nc3ncc(Cl)c(-c4cn(C)c5ccccc45)n3)c2)cc1 [Formula I-28]
- IC50 (CDK7): 0.238 µM

SMILES: Cc1ccc(NC(=O)c2ccc(NC(=O)/C=C/CN(C)C)cc2)cc1Nc1ncc(Cl)c(-c2c[nH]c3ccccc23)n1 [Formula I-22]
- IC50 (CDK7): 0.0326 µM

SMILES: CC(C)[C@]12O[C@H]1[C@@H]1O[C@]13[C@]1(O[C@H]1C[C@H]1C4=C(CC[C@@]13C)C(=O)OC4)[C@@H]2O [Triptolide, triptolide, reference compound]
- IC50 (MV4-11): < 0.5 µM
- IC50 (SK-ES): < 0.5 µM
- IC50 (SKBR3): < 0.5 µM
- IC50 (MCF10A): < 0.5 µM
- IC50 (MCF7): < 0.5 µM
- IC50 (hTERT-HME1): < 0.5 µM
- IC50 (MNNG-HOS Cl#5): < 0.5 µM
- IC50 (MDA-MB231): < 0.5 µM
- IC50 (RD-ES): < 0.5 µM
- IC50 (Hs863T): > 5 µM
- IC50 (143B): < 0.5 µM
- IC50 (SAOS): < 0.5 µM
- IC50 (HL60): < 0.5 µM
- IC50 (RS4-11): < 0.5 µM
- IC50 (Hs822T): 0.5 to 5 µM
- IC50 (T47D): > 5 µM
- IC50 (A673): < 0.5 µM
- IC50 (THP-1): < 0.5 µM

SMILES: CN(C)C/C=C/C(=O)Nc1ccc(C(=O)N(C)c2cccc(Nc3ncc(Cl)c(-c4c[nH]c5ccccc45)n3)c2)cc1 [Formula I-57, (E)-N-(3-(5-chloro-4-(1H-indol-3-yl)pyrimidin-2-ylamino)phenyl)-4-(4-(dimethylamino)but-2-enamido)-N-methylbenzamide]
- IC50 (Jurkat): ≥ 1 µM
- Percent inhibition, MLK3^b (MLK3): C (less than 50% inhibition)
- Percent inhibition, IRAK1^b (IRAK1): C (less than 50% inhibition)

SMILES: CN(C)C/C=C/C(=O)Nc1ccc(C(=O)Nc2cccc(Nc3ncc(Cl)c(-c4c(-c5ccccc5)nn5ccccc45)n3)c2)cc1 [Formula I-38]
- IC50 (CDK7): 3.01 µM

SMILES: CCc1cnc(Nc2cccc(NC(=O)c3ccc(NC(=O)/C=C/CN(C)C)cc3)c2)nc1-c1c[nH]c2ccccc12 [Formula I-21]
- IC50 (CDK7): 0.0227 µM

SMILES: CCSC(=O)CCNc1ccc(C(=O)Nc2cccc(Nc3ncc(Cl)c(-c4c[nH]c5ccccc45)n3)c2)cc1 [Formula I-37]
- IC50 (CDK7): 0.557 µM

SMILES: C=CC(=O)Nc1ccc(C(=O)Nc2cccc(Nc3ncc(Cl)c(-c4c[nH]c5ccccc45)n3)c2)cc1 [Formula I-24]
- IC50 (CDK7): 0.04 µM

SMILES: Cc1ccc(Nc2ncc(C#N)c(-c3c[nH]c4ccccc34)n2)cc1NC(=O)c1ccc(NC(=O)/C=C/CN(C)C)cc1 [Formula I-56, (E)-N-(5-(5-cyano-4-(1H-indol-3-yl)pyrimidin-2-ylamino)-2-methylphenyl)-4-(4-(dimethylamino)but-2-enamido)benzamide]
- IC50 (Jurkat): < 0.1 µM
- Percent inhibition, MLK3^b (MLK3): C (less than 50% inhibition)
- Percent inhibition, IRAK1^b (IRAK1): C (less than 50% inhibition)

SMILES: Cc1cccc2[nH]cc(-c3ccnc(Nc4cccc(NC(=O)c5ccc(NC(=O)/C=C/CN(C)C)cc5)c4)n3)c12 [Formula I-40]
- IC50 (CDK7): 3.47 µM

SMILES: CN(C)C/C=C/C(=O)NCc1ccc(C(=O)Nc2cccc(Nc3ncc(Cl)c(-c4c[nH]c5ccccc45)n3)c2)cc1 [Formula I-43]
- IC50 (CDK7): 0.0362 µM

SMILES: Cc1cnc(Nc2cccc(NC(=O)c3ccc(NC(=O)/C=C/CN(C)C)cc3)c2)nc1-c1c[nH]c2cccc(C)c12 [Formula I-41]
- IC50 (CDK7): 0.809 µM

SMILES: CN(C)C/C=C/C(=O)Nc1ccc(C(=O)Nc2cccc(Nc3ncc(C4CC4)c(-c4c[nH]c5ccccc45)n3)c2)cc1 [Formula I-26]
- IC50 (CDK7): 0.184 µM

SMILES: CN(C)C/C=C/C(=O)Nc1ccc(C(=O)Nc2cccc(Nc3nccc(-c4c[nH]c5ccccc45)n3)c2)cc1 [Formula I-44]
- IC50 (CDK7): 0.391 µM
